In data set [1] the test system is rat formalin paw model of persistent pain. Nature of the data set: Automated formalin paw test, oral administration. It counts as in vivo. The note with it: at at least one dosage between 10 mg/kg and 300 mg/kg (inclusive), in the presence of 1-aminobenzotriazole. As for the experimental part: The in vivo efficacy of selected compounds following oral administration was measured using the rat formalin model of persistent pain. Test compounds were administered 30-60 minutes prior to injection of 5% formalin to the hind-paw of rats and paw movements were measured using the automated Nociception Analyzer (ANA Instrument; University of California, San Diego) for 60 minutes post-formalin. In some experiments, rats were pre-treated 16-22 hours priors to the experiment with the cytochrome-P450 inhibitor, 1-aminobenzotriazole (ABT), to assess the activity of compounds in the absence of significant quantities of metabolites. ED50 values (mg/kg) were calculated from non-linear regression analyses of the cumulative number of flinches in Phase II (10-60 mins) versus dose of test compounds.
In the rat formalin paw model of persistent pain, compounds 83, 113, 114 and 115 (described in Examples 83, 113, 114 and 115, respectively) were tested. In each case, the oral efficacy of the compounds was measured in the presence and absence of the cytochrome CYP-450 inhibitor, 1-aminobenzotriazole.

Data set [2] addresses mu opioid receptor (MOR) (Homo sapiens (Human), UniProt P35372). Nature of the data set: Competitive radioligand binding at MOR ([3H] Naloxone).
For data set [3], the target named is NMDA receptor. Nature of the data set: Competitive radioligand binding at NMDA receptor ([3H] MK801), rat forebrain membranes. The conditions noted are these: 0.2 nM [3H] MK801, reflects free base activity.
For data set [4], the target named is hMOR (Homo sapiens (Human), UniProt P35372). Briefly: cAMP accumulation assay (inhibition of forskolin-stimulated cAMP) in CHO-K1 cells stably expressing hMOR. It counts as cell-based. As for the experimental part:
Mu opioid agonist activity for selected compounds was determined by the inhibition of forskolin-stimulated cAMP accumulation following MOR activation in CHO-K1 cells stably expressing the hMOR. […] IC50 values were calculated from […] analysis of the concentration-response curves using Graph Pad Prizm.

The conditions of data set [5]: Phase II clinical study; cited from earlier work.
Where [6] appears, read: membranes from CHO-K1 cells expressing MOR, 2 nM [3H] Naloxone, reflects free base activity, read-out: MOR IC50.
Setting [7] is: hMOR-expressing CHO-K1 cells, 10 μM forskolin, 60 minute incubation, read-out: MOR cAMP IC50.

Structures are written as SMILES. Where two headings read alike, the source gives them in different places. A value given as a limit tells only on which side of the number the result lay.

Consider `CN1CC[C@]23CCCC[C@H]2[C@H]1Cc1ccc(N)cc13` [Compound 114, 3-amino-17-morphinan], for which the “oral efficacy in Phase I and Phase II of the rat formalin paw model” value (shortened to “oral efficacy in Phase I and Phase II”) in data set [1] was “statistically significant efficacy”. Further, the IC50 in data set [2], in data set [3] and in data set [4] was 100 to 1000 nM each time.

For `COCCN1CC[C@]23CCCC[C@H]2[C@H]1Cc1ccc(O)cc13` [Compound 113, 3-hydroxy-17-(2-methoxyethyl)morphinan], the “oral efficacy in Phase I and Phase II” value in data set [1] is given as “statistically significant efficacy”. In addition, the IC50 in data set [2] fell in the range of 0.1 to 10 nM; in data set [3], 100 to 1000 nM; in data set [4], 0.1 to 10 nM.

On to `CN1CC[C@]23CCCC[C@H]2[C@H]1Cc1ccc(Nc2nccs2)cc13` [Compound 46, 17-methyl-N-(1,3-thiazol-2-yl)morphinan-3-amine], for which the results for the IC50 in data set [2], in data set [3] and in data set [4] were 10 to 100 nM, 100 to 1000 nM and 10 to 100 nM, respectively.

As for `COCCOCCN1CC[C@]23CCCC[C@H]2[C@H]1Cc1ccc(O)cc13` [Compound 15, 17-[2-(2-methoxyethoxy)ethyl]morphinan-3-ol], the IC50 is 10 to 100 nM in data set [2], more than 10000 nM in data set [3] and 10 to 100 nM in data set [4].

With `CN1CC[C@]23CCCC[C@H]2[C@H]1Cc1cc2sc(N)nc2cc13` [Compound 115, (4aR,5R,11bR)-14-methyl-2,3,4,4a,5,6-hexahydro-1H-5,11b-(epiminoethano)phenanthro[3,2-d]thiazol-9-amine], in data set [1], the “oral efficacy in Phase I and Phase II” value was “statistically significant efficacy”. For the same molecule, the IC50 in data set [2] (setting [6]) fell in the range of 10 to 100 nM; in data set [3], 0.1 to 100 nM; in data set [4] (setting [7]) it was 10 to 100 nM.

Take `COCCNC(=O)Oc1ccc2c(c1)[C@@]13CCCC[C@H]1[C@@H](C2)N(C)CC3` [Compound 18, 17-methylmorphinan-3-yl (2-methoxyethyl)carbamate]: the IC50 was in the range of 100 to 1000 nM in data set [2], 1000 to 10000 nM in data set [3] and 100 to 1000 nM in data set [4].

Take `COCCOc1ccc2c(c1)[C@]13CCN(C)[C@H](C2)[C@@H]1CCC(=O)C3` [Compound 7, 3-(2-methoxyethoxy)-17-methylmorphinan-6-one]: the IC50 in data set [2] was 100 to 1000 nM; in data set [3] it was more than 10000 nM; in data set [4], 100 to 1000 nM.

Take `COCCOCCOCC(=O)Nc1ccc2c(c1)[C@@]13CCCC[C@H]1[C@@H](C2)N(C)CC3` [Compound 33, 2-[2-(2-methoxyethoxy)ethoxy]-N-(17-methylmorphinan-3-yl)acetamide]: the IC50 in data set [2] was 100 to 1000 nM; in data set [3], more than 10000 nM; in data set [4] it was 100 to 1000 nM.

For `CN1CC[C@]23CCCC[C@H]2[C@H]1Cc1ccc(O)cc13` [levorphanol, 17-Methylmorphinan-3-ol], in data set [5], the “reduction of neuropathic pain” value is “effective in reducing neuropathic pain” and the side effects entry is reported as “severe dose-limiting side effects”.

Regarding `COCCOCCN1CC[C@]23CCCC[C@H]2[C@H]1Cc1ccc(OC)cc13` [Compound 12, 3-methoxy-17-[2-(2-methoxyethoxy)ethyl]-morphinan], the results for the IC50 in data set [2] (setting [6]), in data set [3] and in data set [4] (setting [7]) were more than 1000 nM, more than 10000 nM and more than 1000 nM, respectively.

`CN1CC[C@]23CCCC[C@H]2[C@H]1Cc1ccc(-c2cn[nH]c2)cc13` [Compound 44, 17-methyl-3-(1H-pyrazol-4-yl)morphinan]: the figures for the IC50 in data set [2], in data set [3] and in data set [4] were 10 to 100 nM, 100 to 1000 nM and 10 to 100 nM, respectively.

Turning to `COCCOCCN1CC[C@]23CCCC[C@H]2[C@H]1Cc1ccc(Nc2cccnc2)cc13` [Compound 83, 17-[2-(2-methoxyethoxy)ethyl]-N-(pyridin-3-yl)morphinan-3-amine], the “oral efficacy in Phase I and Phase II” value in data set [1] is “statistically significant efficacy”. For the same molecule, the IC50 in data set [2] was 100 to 1000 nM; in data set [3] it was 1000 to 10000 nM.

In the case of `COCCOCCOc1ccc(Nc2ccc3c(c2)[C@@]24CCCC[C@H]2[C@@H](C3)N(C)CC4)cc1` [Compound 36, N-{4-[2-(2-methoxyethoxy)ethoxy]phenyl}-17-methylmorphinan-3-amine], the IC50 was in the range of 10 to 100 nM in data set [2] (setting [6]), 1000 to 10000 nM in data set [3] and 10 to 100 nM in data set [4] (setting [7]).

(Values after US10766864B2, “Morphinan derivatives for the treatment of neuropathic pain” (Nektar Therapeutics, priority 2015, dated 2020).)
